[ ]: non-standard residue; d: D form.
Tests used:
JNK = details: JBDs; cited from earlier work
[1] = Focal cerebral ischaemia, transient MCAO model, infarct volume; assay type: in vivo, male ICR-CD1 mice
From the text: Evaluation of neuroprotection by inventive chimeric peptides after iv administration against focal cerebral ischaemia, in a transient MCAO model (see FIG. 4).
Transient ischemia in adult mice. Using male ICR-CD1 mice (6 weeks old; 18-37 g; Harlan), we provoked ischemia by introducing a filament from the common carotid artery into the internal carotid and advancing it into the arterial circle, thereby occluding the middle cerebral artery. We measured regional cerebral blood flow by laser Doppler flowmetry, with a probe fixed on the skull throughout the ischemia until 10 min after reperfusion. Rectal temperature was measured and maintained at 37° C. The mice were killed 48 h after reperfusion. Serial cryostat sections 20 μm thick were traced using a computer-microscope system equipped with the Neurolucida program (MicroBrightField) and the volumes of the ischemic area and of the whole brain were calculated (blinded) with the Neuroexplorer program. XG−102 0.3=0.3 mg/kg,XG−102 1=1 mg/kg, XG−102 5=5 mg/kg
The infarct volume sizes (mm^3) after bolus iv administration of placebo and XG-102 0.3, […] 6 hours after reperfusion (30 minutes clamp) in an adult mice model were as follows.

WiDr cells = test: Irradiation (30 Gy) induced apoptosis; assay type: cell-based, human; details: 1 μM added 30 minutes before 30 Gy, analyzed 48 hours later
Protocol: JNK is also activated by ionizing radiation. To determine whether inventive TAT-IB(s) peptides would provide protection against radiation-induced JNK damage, “WiDr” cells were irradiated (30 Gy) in presence or absence of D-TAT, inventive L-TAT-IB1(s) or inventive D-TAT-IB1(s) peptides (1 μM added 30 minutes before irradiation). Control cells (CTRL) were not irradiated. Cells were analyzed 48 hours later by means of PI and Hoechst 3342 staining, as described above. N=3, SEM are indicated.

βTC-3 cells = test: IL-1β induced pancreatic β-cell death, peptide treatment, propidium iodide / Hoechst 33342 staining; assay type: cell-based; details: for long term inhibition of IL-1β induced cell-death: IL-1β 10 ng/ml every two days, 15 days
Protocol: We investigated the effects of the inventive L-TAT-IB(s) peptides on the promotion of β-cell apoptosis elicited by IL-1. βTC-3 cell cultures were incubated for 30 minutes with 1 μM of inventive L-TAT-IB1(s) peptides followed by 10 ng/mL of IL-1. A second addition of peptide (1 μM) was performed 24 hours later. Apoptotic cells were counted after two days of incubation with IL-1 β using propidium iodide (red stained cell are dead cells) and Hoechst 33342 (blue stained cell are cells with intact plasma membrane) nuclear staining.
Long term inhibition of IL-1 induced cells death was examined by treating βTC-3 cells as described above, except that incubation of the cells with the peptides and IL-1 β was sustained for 12 days. Additional peptides (1 μM) were added each day and additional IL-1 β (10 ng/mL) was added every 2 days. […] Taken together, these experiments provide evidence that inventive TAT-IB(s) peptides are biologically active molecules able to prevent the effects of JNK signaling on cell fate.
Inhibition of IL-1 β induced pancreatic β-cell death by the inventive D-TAT-IB1(s) peptide was analyzed. βTC-3 cells were incubated as described above for 30 minutes with one single addition of the indicated peptides (1, μM), then IL-1 (10 ng/ml) was added.
Apoptotic cells were then counted after two days of incubation with IL-1 β by use of Propidium Iodide and Hoechst 33342 nuclear staining. A minimum of 1,000 cells were counted for each experiment. Standard Error of the Means (SEM) are indicated, n=5.
Long term inhibition of IL-1P induced cell-death by the D-TAT-IB1 peptide was also analyzed. βTC-3 cells were incubated as above for 30 minutes with one single addition of the indicated peptides (1 μM), then IL-1 β (10 ng/ml) was added, followed by addition of the cytokine every two days. Apoptotic cells were then counted after 15 days of incubation with IL-1 by use of propidium iodide and Hoechst 33342 nuclear staining. […] A minimum of 1.000 cells were counted for each experiment.

AP-1 DNA binding complex = test: Gel retardation assay with AP-1 probe, nuclear extracts of TNF-α treated HeLa cells; assay type: cell-based; details: peptide added 30 minutes before TNF-α 5 ng/ml
[2] = system: recombinant JNK1, JNK2, or JNK3 kinases; test: Solid phase kinase assay, phosphorylation of c-Jun, ATF2 and Elk1 by recombinant JNKs; assay type: biochemical
Protocol: (§1) The effects of the peptides on JNKs-mediated phosphorylation of their target transcription factors were investigated in vitro. Recombinant and non activated JNK1, JNK2 and JNK3 were produced using a TRANSCRIPTION AND TRANSLATION rabbit reticulocyte lysate kit (Promega) and used in solid phase kinase assays with c-Jun, ATF2 and Elk1, either alone or fused to glutathione-S-transferase (GST), as substrates. Dose response studies were performed wherein inventive L-TAT or L-TAT-IB1(s) peptides (0-25 μM) were mixed with the recombinant JNK1, JNK2, or JNK3 kinases in reaction buffer (20 mM Tris-acetate, 1 mM EGTA, 10 mM p-nitrophenyl-phosphate (pNPP), 5 mM sodium pyrophosphate, 10 mM p-glycerophosphate, 1 mM dithiothreitol) for 20 minutes. The kinase reactions were then initiated by the addition of 10 mM MgCl2 and 5 pCi […] and 1 μg of either GST-Jun (aa 1-89), GST-AFT2 (aa 1-96) or GST-ELK1 (aa 307-428). GST-fusion proteins were purchased from Stratagene (La Jolla, Calif.).
Ten μL of glutathione-agarose beads were also added to the mixture. Reaction products were then separated by SDS-PAGE on a denaturing 10% polyacrylamide gel. Gels were dried and subsequently exposed to X-ray films (Kodak). […] The ability of D-TAT, inventive D-TAT-IB1(s) and inventive L-TAT-IB1(s) peptides (0-250 μM dosage study) to inhibit GST-Jun (aa 1-73) phosphorylation by recombinant JNK1, JNK2, and JNKS by were analyzed as described above. Overall, D-TAT-IB1(s) peptide decreased JNK-mediated phosphorylation of c-Jun, but at levels approximately 10-20 fold less efficiently than L-TAT-IB1(s).

activated JNKs = test: c-Jun phosphorylation by activated JNKs pulled down with GST-Jun from UV-light irradiated HeLa cells or IL-1β treated βTC-3 cells; assay type: biochemical; details: peptide 25 μM for 20 minutes
Protocol: The effects of the L-TAT or inventive L-TAT-IB1(s) peptides on JNKs activated by stressful stimuli were evaluated using GST-Jun to pull down JNKs from UV-light irradiated HeLa cells or IL-1 β treated PTC cells. PTC cells were cultured as described above. HeLa cells were cultured in DMEM medium supplemented with 10% Fetal Calf Serum, 100 μg/mL Streptomycin, 100 units/ml Penicillin and 2 mM Glutamine. One hour prior to being used for cell extract preparation, PTC cells were activated with IL-1 β as described above, whereas HeLa cells were activated by UV-light (20 J/m^2). Cell extracts were prepared from control, UV-light irradiated HeLa cells and IL-1β treated βTC-3 cells by scraping the cell cultures in lysis buffer (20 mM Tris-acetate, 1 mM EGTA, 1% Triton X-100, 10 mM p-nitrophenyl-phosphate, 5 mM sodium pyrophosphate, 10 mMP-glycerophosphate, 1 mM dithiothreitol). Debris was removed by centrifugation for five minutes at 15,000 rpm in an SS-34 Beckman rotor. One-hundred μg extracts were incubated for one hour at room temperature with one μg GST-jun (amino acids 1-89) and 10 μL of glutathione-agarose beads (Sigma). Following four washes with the scraping buffer, the beads were resuspended in the same buffer supplemented with L-TAT or inventive L-TAT-IB1(s) peptides (25 μM) for 20 minutes. […]

JNK signaling = test: Heterologous GAL4 system (GAL-Jun / 5xGAL-LUC luciferase reporter) in HeLa cells with MKK4/MKK7 activation of JNK; assay type: cell-based; details: peptide 1 μM
From the text: To determine whether the inventive cell-permeable peptides could block JNK signaling in vivo, we used a heterologous GAL4 system. HeLa cells, cultured as described above, were co-transfected with the 5×GAL-LUC reporter vector together with the GAL-Jun expression construct (Stratagene) comprising the activation domain of c-Jun (amino acids 1-89) linked to the GAL4 DNA-binding domain. Activation of JNK was achieved by the co-transfection of vectors expressing the directly upstream kinases MKK4 and MKK7 (see Whitmarsh et al., Science 285: 1578 (1999)). Briefly, 3×10^5 cells were transfected with the plasmids in 3.5-cm dishes using DOTAP (Boehringer Mannheim) following instructions from the manufacturer. For experiments involving GAL-Jun, 20 ng of the plasmid was transfected with 1 μg of the reporter plasmid pFR-Luc (Stratagene) and 0.5 μg of either MKK4 or MKK7 expressing plasmids. Three hours following transfection, cell media were changed and TAT and TAT-IB1(s) peptides (1 μM) were added. The luciferase activities were measured 16 hours later using the “Dual Reporter System” from Promega after normalization to protein content. […] Because HeLa cells express JNK1 and JNK2 isoforms but not JNK3, we transfected cells with JNK3.

JNK3 = molecular target: T1, JNK3 (Homo sapiens, UniProt P53779); test: Solid phase kinase assay, JNK3 phosphorylation of Elk1; assay type: biochemical; details: dose response 0-25 μM, GST-ELK1 (aa 307-428)
T1 construct: host or cells: cell-free: rabbit reticulocyte lysate transcription/translation
Protocol: as §1
Ten μL of glutathione-agarose beads were also added to the mixture. Reaction products were then separated by SDS-PAGE on a denaturing 10% polyacrylamide gel. […] The ability of D-TAT, inventive D-TAT-IB1(s) and inventive L-TAT-IB1(s) peptides (0-250 μM dosage study) to inhibit GST-Jun (aa 1-73) phosphorylation by recombinant JNK1, JNK2, and JNKS by were analyzed as described above. […]

βTC-3 cell cultures = assay type: cell-based
Protocol: The ability of the L- and D-enantiomeric forms of TAT and inventive TAT-IB1(s) peptides (“TAT-IB peptides”) to enter cells was evaluated. L-TAT, D-TAT, inventive L-TAT-IB1(s), and inventive D-TAT-IB1(s) peptides [SEQ ID NOs: 5, 6, 9 and 12, respectively] were labeled by N-terminal addition of a glycine residue conjugated to fluorescein. Labeled peptides (1 μM) were added to βTC-3 cell cultures, which were maintained as described in Example 3. At predetermined times cells were washed with PBS and fixed for five minutes in ice-cold methanol-acetone (1:1) before being examined under a fluorescence microscope. Fluorescein-labeled BSA (1 μM, 12 moles/mole BSA) was used as a control.
Little to no signal was present at 48 hours.
Fluorescent signals from these all-D retro-inverso peptides were still very strong 1 week later, and the signal was only slightly diminished at 2 weeks post treatment.

T1 sequence (P53779 whole entry, species assumed, the tested form may be a part): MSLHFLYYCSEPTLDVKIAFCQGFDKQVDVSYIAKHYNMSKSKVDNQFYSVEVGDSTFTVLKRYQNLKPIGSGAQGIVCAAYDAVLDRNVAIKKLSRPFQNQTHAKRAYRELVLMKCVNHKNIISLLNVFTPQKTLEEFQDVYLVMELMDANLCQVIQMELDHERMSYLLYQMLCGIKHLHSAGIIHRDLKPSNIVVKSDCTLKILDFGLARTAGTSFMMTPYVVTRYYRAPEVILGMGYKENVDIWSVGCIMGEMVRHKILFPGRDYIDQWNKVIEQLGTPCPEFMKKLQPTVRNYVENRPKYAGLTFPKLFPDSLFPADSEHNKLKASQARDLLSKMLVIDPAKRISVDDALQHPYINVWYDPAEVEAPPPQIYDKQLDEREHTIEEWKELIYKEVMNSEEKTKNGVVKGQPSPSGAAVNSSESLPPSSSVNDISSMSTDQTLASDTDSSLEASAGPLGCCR

Substance: IPSPSVEEPHKHRPTTLRLTTLGAQDS (IPSPSVEEPHKHRPTTLRLTTLGAQDS) [1B2-long]
- efficiency in binding JNK relative to c-Jun or ATF2 (JNK): approximately 100 fold

Substance: NH2-DQSRPVQPFLNLTTPRKPRPPRRRQRRKKRG-COOH (H-[dD][dQ][dS][dR][dP][dV][dQ][dP][dF][dL][dN][dL][dT][dT][dP][dR][dK][dP][dR][dP][dP][dR][dR][dR][dQ][dR][dR][dK][dK][dR]G-OH) [XG102]
- infarct volume sizes, moyenne ([1]; 0.3 mg/kg bolus iv 6 hours after reperfusion (30 minutes clamp), n = 5, 48 h after reperfusion): 16 mm^3
- infarct volume sizes, moyenne ([1]; 1 mg/kg bolus iv 6 hours after reperfusion (30 minutes clamp), n = 1, 48 h after reperfusion): 16 mm^3
- infarct volume sizes, moyenne ([1]; XG102 3 group, bolus iv 6 hours after reperfusion (30 minutes clamp), n = 5, 48 h after reperfusion): 15 mm^3

Substance: NH2-GRKKRRQRRRPPRPKRPTTLNLFPQVPRSQD-COOH (H-GRKKRRQRRRPPRPKRPTTLNLFPQVPRSQD-OH) [L-TAT-IB1(s)]
- prevention of irradiation induced apoptosis (WiDr cells): able to prevent irradiation induced apoptosis
- long term inhibition of IL-1β induced cell-death (βTC-3 cells; one single addition 1 μM): but not inventive L-TAT-IB1 (s), was able to confer long term (15 day) protection
- formation of the AP-1 DNA binding complex (AP-1 DNA binding complex): decrease the formation of the AP-1 DNA binding complex in the presence of TNF-α

Substance: NH2-GRKKRRQRRRPPRPKRPTTLNLFPQVPRSQD-COOH (H-GRKKRRQRRRPPRPKRPTTLNLFPQVPRSQD-OH) [TAT-IB(s)]
- inhibition of IL-1 induced apoptosis (βTC-3 cells; 1 μM, second addition at 24 hours, IL-1 10 ng/mL, two days): inhibited IL-1-induced apoptosis of βTC-3 cells
- long term inhibition of IL-1 induced cell death (βTC-3 cells; 12 days, peptide 1 μM added each day, IL-1β 10 ng/mL every 2 days): confers strong protection against apoptosis
- long term inhibition of IL-1β induced cell-death (βTC-3 cells; one single addition 1 μM, listed as TAT-IB 1): does not confer long-term protection
- inhibition of JNK family phosphorylation of target transcription factors, overall [2]: superior effects in inhibiting JNK family phosphorylation of their target transcription factors
- peptide dose giving nearly complete inhibition of c-Jun, ATF2 and Elk1 phosphorylation by JNKs ([2]; dose response 0-25 μM, GST-Jun (aa 1-89), GST-AFT2 (aa 1-96), GST-ELK1 (aa 307-428)): ≥ 2.5 µM
- prevention of c-Jun phosphorylation by activated JNKs (activated JNKs): efficiently prevented phosphorylation of c-Jun by activated JNKs
- activation of c-Jun (luciferase) in cells transfected with JNK3 (JNK signaling; HeLa cells transfected with JNK3): inhibited JNK2 mediated activation of c-Jun
- activation of c-Jun (luciferase) following MKK4 and MKK7 mediated activation of JNK (JNK signaling; luciferase 16 hours later): blocked activation of c-Jun following MKK4 and MKK7 mediated activation of JNK
- inhibition of JNK3 phosphorylation of Elk1 (JNK3): absence of TAT-IB(s) inhibition of JNKS phosphorylation of Elk1

Substance: NH2-RRRQRRKKRG-COOH (D-amino acids) [D-TAT, reference compound]
- stability inside the cells (βTC-3 cell cultures): extremely stable inside the cells

Substance: PGTGCGDTYRPKRPTTLNLFPQVPRSQDT (PGTGCGDTYRPKRPTTLNLFPQVPRSQDT) [IB1-long]
- efficiency in binding JNK relative to c-Jun or ATF2 (JNK): approximately 100 fold

Substance: TDQSRPVQPFLNLTTPRKPRYTDPPRRRQRRKKRG (TDQSRPVQPFLNLTTPRKPRYTDPPRRRQRRKKRG) [D-TAT-IB1, reference compound]
- inhibition of IL-1β induced apoptosis (βTC-3 cells; one single addition 1 μM, IL-1 10 ng/ml, two days, n=5): decreased IL-1 induced apoptosis to a similar extent as L-TAT-IB peptides
